The source of these data is patent publication US9242937B2, “Pharmaceutically active disubstituted pyridine derivatives” (Bayer Intellectual Property GmbH, priority 2011, dated 2016).

For one assay, the target named is T1, CDK9/Cyclin T1 (Homo sapiens, UniProt P50750).
T1 construct: purchased Invitrogen
As to the kind of experiment: LanthaScreen Eu Kinase Binding Assay, CDK9/Cyclin T1. The following applies: tracer 236, read-out: CDK9/Cyclin T1 (activity range), Kd. The procedure: (§1) This protocol describes how the LanthaScreen Eu Kinase Binding Assay was performed to determine dissociation constants (Kd) of compounds of general formula (I) and CDK/Cyclin complexes. The principle behind this assay is based upon the binding and displacement of an Alexa Fluor 647-labeled tracer, which binds to the active site of kinases. Binding of the tracer to the kinase is detected using a Eu-labeled antibody. Simultaneous binding of both the tracer and antibody to the kinase gives rise to a FRET-signal. Binding of an inhibitor to the kinase competes for binding with the tracer, resulting in a loss of FRET.
(§2) The compounds of general formula (I) summarized in Table 1 were diluted from a 10 mM DMSO stock solution 1:10 in a total volume of 15 μL DMSO. This compound predilution was then serial diluted 1:3 over 8 steps in DMSO and briefly spun down. Each compound solution was now diluted 1:33.33 in kinase buffer (HEPES: 20 mM, pH: 8.0; MgCl2: 10 mM; DTT: 1 mM; Brij-35: 0.01%), mixed thoroughly and spun down. For every sample, 5 μL of the diluted compound were mixed with 5 μL tracer working solution (e.g. 60 nM tracer 236 in kinase buffer for CDK2/Cyclin A) and 5 μL CDK/Cyclin/Anti-GST-AB-working solution (e.g. 15 nM CDK2/Cyclin A, 1:250 dilution of Anti-GST-AB in kinase buffer) in a well of a small volume 384 well plate (Corning Incorporated, Corning, N.Y., USA; order no. 3673). The tracer concentration was adjusted to its dissociation constant (Kd) for the CDK/Cyclin, which was 30 nM for CDK2/Cyclin A, CDK7/Cyclin H and CDK9/Cyclin T1, 20 nM for CDK8/Cyclin C, and 35 nM for CDK9/Cyclin K. For negative controls, in each well 5 μL of DMSO working solution (3% DMSO diluted in kinase buffer) was mixed with 5 μL Anti-GST-AB working solution (e.g. 1:250 dilution of Anti-GST-AB in kinase buffer for CDK2/Cyclin A) and 5 μL Tracer working solution (e.g. 60 nM Tracer 236 in kinase buffer for CDK2/Cyclin A). For positive controls, in each well 5 μL of DMSO working solution (3% DMSO diluted in kinase buffer) was mixed with 5 μL CDK/Cyclin/Anti-GST-AB-working solution: (e.g. 15 nM CDK2/Cyclin A, 1:250 dilution of Anti-GST-AB in kinase buffer) and 5 μL Tracer working solution (e.g. 60 nM Tracer 236 in kinase buffer for CDK2/Cyclin A). Positive and negative controls were calculated from at least 8 different sample wells. The 384 well plates were mixed in a Teleshaker plate mixer (Beckman Coulter, Brea, Calif., USA) at 2000 rpm for 40 sec, and incubated for 1 h at room temperature before reading. The FRET signal was measured at 340 nm excitation, 665 nm and 615 nm emission (for the kinase tracer and LanthaScreen Eu-AB, respectively) with an Envision spectrophotometer (Perkin Elmer, Waltham, Mass., USA) with 50 μs delay and 300 μs integration time. Kd values were determined from the sigmoidal dose response curves with the software Quattro Workflow (Quattro GmbH, Munich, Germany).
On the technique in general: In TR-FRET formats the signal depends on donor and acceptor labels being close together.

The target of assay [1] is T2, CDK7/CyclinH/MAT1 (Homo sapiens, UniProt P50613).
T2 construct: purchased Carna Biosciences
As to the kind of experiment: LanthaScreen Eu Kinase Binding Assay, CDK7. The following applies: tracer 236, read-out: CDK7 (activity range), Kd. The procedure:
as §1, §2

Assay [2] deals with T3, CDK2/CyclinA (Homo sapiens, UniProt P24941).
T3 construct: purchased Proqinase
In words: LanthaScreen Eu Kinase Binding Assay, CDK2. The following applies: tracer 236, read-out: CDK2 (activity range), Kd. The method, then: as §1, §2

A further assay has as its target T4, CDK9 (Homo sapiens, UniProt P50750).
T4 construct: purchased Invitrogen
As to the kind of experiment: Lance Ultra KinaSelect Assay, CDK9. The format is biochemical. The following applies: ULight MBP substrate; cyclin partner not stated in Table 5; read-out: CDK9 LANCE assay (activity range), IC50. The method, then:
(§3) This protocol describes how the Lance Ultra KinaSelect Assay was performed to determine half maximal inhibitory concentration (IC50) of compounds of general formula (I) and CDK/Cyclin complexes. The principle behind this enzymatic assay is based upon the phosphorylation of the ULight-Peptide Substrat. It is detected by using a specific EU-labeled anti-phospho peptide antibody. The binding of the Eu-labeled anti-phospho peptide antibody to the phosphorylated ULight labeled peptide gives rise to a FRET-signal. Binding of an inhibitor to the kinase prevents phosphorylation of the ULight-MBP Substrat, resulting in a loss of FRET.
(§4) The compounds of general formula (I) summarized in Table 5 were diluted from a 10 mM DMSO stock solution 1:10 in a total volume of 15 μL DMSO. This compound predilution was then serial diluted 1:3 over 8 steps in DMSO and briefly spun down. Each compound solution was now diluted 1:20 in Enzymatic Buffer (HEPES: 50 mM, pH: 7.5; MgCl2: 10 mM; EGTA: 1 mM; DTT: 2 mM; Tween-20: 0.01%), mixed thoroughly and spun down. For every sample, 2 μL of the diluted compound were mixed with 6 μL CDK/Cyclin/Substrat solution and 2 μL ATP solution in a well of a small volume 384 well plate (Corning Incorporated, Corning, N.Y., USA; order no. 3673). The CDK/Cyclin was diluted to the appropriate concentration (see Table 3) and the ATP concentration was adjusted to its […] for the CDK/Cyclin, which was 3 μM for CDK2/Cyclin A, 20 μM for CDK1/Cyclin B1, 25 μM for CDK7/Cyclin H and CDK9/Cyclin T1, 55 μM for CDK6/Cyclin D3, 90 μM for CDK4/Cyclin D1 and 125 μM for CDK9/Cyclin K. For negative controls, in each well 2 μL of DMSO solution (1% final DMSO assay concentration) was mixed with 6 μL substrate solution (50 nM ULight MBP final assay concentration) and 2 μL ATP solution (appropriate final concentration see Table 3). For positive controls, in each well 2 μL of DMSO solution (1% final DMSO assay concentration) was mixed with 6 μL CDK/Cyclin/Substrat (appropriate final concentration see Table 3) and 2 μL Tracer ATP solution (appropriate final concentration see Table 3). Positive and negative controls were calculated from at least 8 different sample wells. The 384 well plates were mixed in a Teleshaker plate mixer (Beckman Coulter, Brea, Calif., USA) at 2000 rpm for 40 sec, and incubated for 1 h at room temperature. Before reading, 10 μL the detection buffer (Lance Detection Buffer 1×; EDTA: […]; Eu-Anti-P-MBP: see Table 3) was added. The FRET signal was measured at 340 nm excitation, 665 nm and 615 nm emission (for the kinase tracer and LanthaScreen Eu-AB, respectively) with an Envision spectrophotometer (Perkin Elmer, Waltham, Mass., USA) with 50 μs delay and 300 μs integration time. IC50 values were determined from the sigmoidal dose response curves with the software Quattro Workflow (Quattro GmbH, Munich, Germany).

Assay [3] concerns the target T3, CDK2/CyclinA. In words: Lance Ultra KinaSelect Assay, CDK2. The format is biochemical. The following applies: ULight MBP substrate, ATP 3 μM; read-out: CDK2 LANCE assay (activity range), IC50. The method, then:
as §3, §4

For assay [4], the target named is T2, CDK7/CyclinH/MAT1. As to the kind of experiment: Lance Ultra KinaSelect Assay, CDK7. The format is biochemical. The following applies: ULight MBP substrate, ATP 25 μM; read-out: CDK7 LANCE assay (activity range), IC50. The method, then: as §3, §4

T2 sequence (P50613 whole entry): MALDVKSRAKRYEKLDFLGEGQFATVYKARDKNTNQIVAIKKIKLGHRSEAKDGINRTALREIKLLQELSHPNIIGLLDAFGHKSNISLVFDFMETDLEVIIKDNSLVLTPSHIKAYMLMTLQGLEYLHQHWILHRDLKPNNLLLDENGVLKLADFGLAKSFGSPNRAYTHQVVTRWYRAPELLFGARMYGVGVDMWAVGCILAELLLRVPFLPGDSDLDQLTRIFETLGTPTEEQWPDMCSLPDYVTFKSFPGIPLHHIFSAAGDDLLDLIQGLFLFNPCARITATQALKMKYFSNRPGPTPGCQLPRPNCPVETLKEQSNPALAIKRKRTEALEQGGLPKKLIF
T2 sequence (P51946 whole entry partner): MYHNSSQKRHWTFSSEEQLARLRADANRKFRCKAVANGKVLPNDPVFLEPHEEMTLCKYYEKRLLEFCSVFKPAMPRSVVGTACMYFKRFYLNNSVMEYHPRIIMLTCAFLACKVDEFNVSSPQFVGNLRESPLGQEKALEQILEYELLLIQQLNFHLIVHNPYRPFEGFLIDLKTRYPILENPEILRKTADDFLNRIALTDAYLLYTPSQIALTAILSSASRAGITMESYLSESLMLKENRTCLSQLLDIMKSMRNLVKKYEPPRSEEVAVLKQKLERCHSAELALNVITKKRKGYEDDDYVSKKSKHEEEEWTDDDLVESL
T2 sequence (P51948 whole entry partner): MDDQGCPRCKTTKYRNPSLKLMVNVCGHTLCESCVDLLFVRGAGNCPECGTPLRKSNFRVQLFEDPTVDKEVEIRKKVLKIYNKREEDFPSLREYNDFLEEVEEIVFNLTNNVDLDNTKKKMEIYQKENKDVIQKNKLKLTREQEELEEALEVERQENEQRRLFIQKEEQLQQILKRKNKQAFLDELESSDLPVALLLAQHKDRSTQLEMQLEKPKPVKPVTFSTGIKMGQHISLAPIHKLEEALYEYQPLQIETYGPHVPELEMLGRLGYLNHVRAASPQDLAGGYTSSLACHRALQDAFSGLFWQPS
T1 sequence (P50750 whole entry): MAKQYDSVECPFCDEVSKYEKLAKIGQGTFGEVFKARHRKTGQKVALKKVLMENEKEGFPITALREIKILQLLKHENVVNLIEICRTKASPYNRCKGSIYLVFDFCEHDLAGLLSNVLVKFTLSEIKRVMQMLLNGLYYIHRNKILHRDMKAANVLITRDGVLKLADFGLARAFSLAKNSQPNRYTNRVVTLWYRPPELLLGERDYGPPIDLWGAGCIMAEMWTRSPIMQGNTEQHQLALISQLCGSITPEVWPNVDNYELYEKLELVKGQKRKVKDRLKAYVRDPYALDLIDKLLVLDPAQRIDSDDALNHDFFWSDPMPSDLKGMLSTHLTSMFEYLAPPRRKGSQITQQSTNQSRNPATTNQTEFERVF
T1 sequence (O60563 whole entry partner): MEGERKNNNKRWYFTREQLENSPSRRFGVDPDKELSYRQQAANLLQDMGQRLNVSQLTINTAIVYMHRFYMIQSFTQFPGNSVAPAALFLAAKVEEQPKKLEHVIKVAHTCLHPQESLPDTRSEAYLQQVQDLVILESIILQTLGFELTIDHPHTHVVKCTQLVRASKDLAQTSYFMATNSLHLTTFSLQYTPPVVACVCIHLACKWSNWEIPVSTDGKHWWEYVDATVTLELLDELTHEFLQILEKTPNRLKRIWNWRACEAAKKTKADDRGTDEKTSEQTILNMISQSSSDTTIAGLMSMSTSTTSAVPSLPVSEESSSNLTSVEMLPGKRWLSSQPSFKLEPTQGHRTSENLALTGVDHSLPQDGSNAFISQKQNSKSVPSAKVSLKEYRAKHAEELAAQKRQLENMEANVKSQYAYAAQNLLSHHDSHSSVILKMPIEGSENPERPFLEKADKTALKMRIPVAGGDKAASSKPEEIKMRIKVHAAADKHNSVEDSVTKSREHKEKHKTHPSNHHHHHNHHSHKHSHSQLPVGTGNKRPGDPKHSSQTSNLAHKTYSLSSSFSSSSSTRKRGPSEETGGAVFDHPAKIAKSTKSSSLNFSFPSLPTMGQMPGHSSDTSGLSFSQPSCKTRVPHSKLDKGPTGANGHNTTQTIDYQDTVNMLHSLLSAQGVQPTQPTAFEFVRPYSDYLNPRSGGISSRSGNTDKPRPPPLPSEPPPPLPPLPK
T4 sequence (P50750 whole entry): as the sequence (P50750 whole entry) above

For `COc1cc(F)ccc1-c1ccnc(Nc2cccc(S(=O)(=O)NC(C)(C)C)c2)c1` [Compound D2, N-(tert-Butyl)-3-[(4-(4-fluoro-2-methoxyphenyl)pyridin-2-yl)amino]-benzenesulfonamide], the values for the Kd on CDK9/Cyclin T1 and at CDK7/CyclinH/MAT1 [1] were 1000 to 10000 nM and more than 10000 nM, respectively.

As for `COc1ccccc1-c1ccnc(Nc2cccc(CS(N)(=O)=O)c2)c1` [Compound G2, [3-((4-(2-Methoxyphenyl)pyridin-2-yl)amino)phenyl]-methanesulfonamide], the Kd is less than 100 nM at CDK9/Cyclin T1, more than 10000 nM on CDK7/CyclinH/MAT1 [1] and less than 100 nM on CDK2/CyclinA [2]. Moreover, the IC50 at CDK9 was less than 100 nM; on CDK2/CyclinA [3], 100 to 1000 nM; on CDK7/CyclinH/MAT1 [4] it was more than 10000 nM.

With `COc1ccccc1-c1ccnc(Nc2cccc(CCS(N)(=O)=O)c2)c1` [Compound H1, 2-[3-((4-(2-Methoxyphenyl)pyridin-2-yl)amino)phenyl]-ethanesulfonamide], the Kd at CDK9/Cyclin T1 is less than 100 nM; at CDK7/CyclinH/MAT1 [1], more than 10000 nM; at CDK2/CyclinA [2], 100 to 1000 nM. Also, the IC50 at CDK9 was less than 100 nM; on CDK2/CyclinA [3], 1000 to 10000 nM; on CDK7/CyclinH/MAT1 [4] it was more than 10000 nM.

One may read the IC50 as the concentration that inhibits the measured activity by half.
